{"source": "patent US20220127297A1", "about": "“Novel Antibacterial 3\"-Derivatives Of 4,6-Disubstituted 2,5-Dideoxystreptamine Aminoglycoside Antibiotics” (AGILeBiotics B.V., priority 2018, published 2022)", "test_in_all_cases": "MIC determination at University Medical Center Groningen", "assay_type_in_all_cases": "cell-based", "key": {"[1]": {"tested_on": "clinical isolates of Acinetobacter baumannii (and ATCC17978)", "description": "(§1) 3.4.3 MIC Determination at University Medical Center Groningen (the Netherlands)\n(§2) Tested reference compounds. Amikacin sulfate (Cat. No. 01693, Chem-Impex), Gentamicin sulfate (Cat. No. G4918, Sigma Aldrich).\n(§3) Bacterial strains/isolates. Pseudomonas aeruginosa ATCC 27853, Escherichia coli ATCC 25922, Klebsiella pneumonia ATCC43816, Acinetobacter baumannii ATCC17978, 9 clinical isolates of Klebsiella pneumonia (origin: 4 unknown, 3 urine, 1 sputum, 1 catheter tip), 7 clinical isolates of Pseudomonas aeruginosa (origin: 3 unknown, 1 wound, 1 catheter, 1 faeces, bronco alveolar liquid=BAL), 8 clinical isolates of Escherichia coli (origin: 2 bile liquid, 2 rectum, 1 throat, 2 blood culture, 1 sputum), 4 clinical isolates of Acinetobacter baumannii (origin: 2 blood culture, 1 sputum, 1 bone).\n(§4) Culture media and equipment. As indicated by EUCAST guidelines (European Committee on Antimicrobial Susceptibility Testing (EUCAST); Media preparation for EUCAST disk diffusion testing and for determination of MIC values by the broth microdilution method; Version 5.0, 2017), Mueller Hinton Broth, CM0405, (Oxoid) was used for the broth micro-dilutions; and Mueller Hinton Agar, CM0337, (Oxoid) was used for the plating on agar. The testing assays were conducted in 96-well plates, with U-bottom shape (Greiner Bio-one); All bacteria strains/isolates used were handled in a Laminar flow, Clean Air (Baker). A CO2 incubator commercialized by Sanyo was used. Finally, spectrophotometer measurements were conducted using a Synergy 2 Multi-detection Microplate Reader (BioTek).\n(§5) Compound preparation. The compounds were weighed and dissolved into MilliQ water. These concentrated stock aliquots were then further diluted to reach the desired testing concentrations. Serial dilutions were made in order to achieve the ten desired final concentrations for the tested compounds, that ranged between 64-0.125 μg/mL. The concentrations were calculated in respect to the 150 μL of final volume used for each of the 96-wells. Of these dilutions, 100 μL was added in each testing well of a sterile 96-well plate. All compound dilutions were plated in triplicate, while duplicates were used for the two reference antibiotics.\n(§6) Inoculum preparation. The clinical isolates were revived from Luria Bertani medium storage at −80° C. by plating them overnight on MH agar plates. The following day, a few colonies were picked and inoculated in small glass bottles containing 10 mL MH broth. Growth was subsequently allowed for approx. 3 hours, at 35° C. with 250 rpm shaking, until the isolates reached late logarithmic growth phase. At this point culture solutions were prepared with an OD600 (optical density measured at 600 nm; measured using Synergy 2 Multi-detection Microplate Reader; BioTek) of 0.05. […] 50 μL of culture suspension was added to each of the wells of the 96 well plate previously loaded with the desired antibiotic/medium solution, reaching a final total volume of 150 μL per well. As controls, blanks of the MH medium and of culture were added to the 96-well plate. Plates were incubated in a plate incubator in static conditions at 35° C. for 18 hours.\n(§7) MIC determination. After the incubation time, the MIC value was determined by visual inspection of bacterial growth within 96-well plates. The first column in which there was no visible growth of bacteria was determined as the MIC90 value for the compound tested in that particular row. Additionally, spectrophotometer readouts at 600 nm were recorded for each well.\n(§8) MIC90. The MIC90 of a compound was assigned at which no visible growth of bacteria was determined."}, "[2]": {"tested_on": "clinical isolates of Escherichia coli (and ATCC 25922)", "description": "as §1, §2, §3, §4, §5, §6, §7, §8"}, "[3]": {"tested_on": "clinical isolates of Klebsiella pneumonia (and ATCC43816)", "conditions": "Klebsiella pneumoniae", "description": "as §1, §2, §3, §4, §5, §6, §7, §8"}, "[4]": {"tested_on": "clinical isolates of Pseudomonas aeruginosa (and ATCC 27853)", "description": "as §1, §2, §3, §4, §5, §6, §7, §8"}}, "note": "Like-named read-outs stand apart in the source and are kept apart here."}
{"smiles": "N=C(N)NC1C(O)[C@@H](CO)OC(OC2C(F)[C@H](O[C@H]3OC(CN)[C@@H](O)CC3N)C(N)C[C@H]2NC(=O)[C@@H](O)CCN)[C@@H]1O", "note": "(stereo partly drawn) [ABX5006, Tobra-AHB-F-Gua]", "values": [{"measurement": "MIC90", "setting": "[1]; ATCC17978, A. baumannii ATCC17978 strain, broth micro-dilution (CLSI)", "result": "< 0.125", "unit": "µg/mL"}, {"measurement": "MIC90", "setting": "[1]; ATCC17978, A. baumannii clinical isolate AB-2, Multidrug-resistant, origin Sputum", "result": "0.5 to 1", "unit": "µg/mL"}, {"measurement": "MIC90", "setting": "[1]; ATCC17978, A. baumannii clinical isolate AB-10, Multidrug-resistant, origin Blood culture", "result": "0.5 to 1", "unit": "µg/mL"}, {"measurement": "MIC90", "setting": "[1]; ATCC17978, A. baumannii clinical isolate AB-14, Multidrug-resistant, origin Blood culture", "result": "0.5 to 1", "unit": "µg/mL"}, {"measurement": "MIC90", "setting": "[1]; ATCC17978, A. baumannii clinical isolate AB-18, Multidrug-resistant, origin Bone", "result": "2 to 4", "unit": "µg/mL"}, {"measurement": "MIC90", "setting": "[2]; ATCC25922, E. coli ATCC25922 strain, broth micro-dilution (CLSI)", "result": 0.5, "unit": "µg/mL"}, {"measurement": "MIC90", "setting": "[2]; ATCC25922, E. coli clinical isolate EC-11, Multidrug-resistant, origin Throat", "result": 0.5, "unit": "µg/mL"}, {"measurement": "MIC90", "setting": "[2]; ATCC25922, E. coli clinical isolate EC-12, Multidrug-resistant, origin Rectum", "result": 2, "unit": "µg/mL"}, {"measurement": "MIC90", "setting": "[2]; ATCC25922, E. coli clinical isolate EC-22, Multidrug-resistant, origin Sputurn", "result": 4, "unit": "µg/mL"}, {"measurement": "MIC90", "setting": "[2]; ATCC25922, E. coli clinical isolate EC-25, Multidrug-resistant, origin Bile liquid", "result": 4, "unit": "µg/mL"}, {"measurement": "MIC90", "setting": "[2]; ATCC25922, E. coli clinical isolate EC-26, Multidrug-resistant, origin Bile liquid", "result": 4, "unit": "µg/mL"}, {"measurement": "MIC90", "setting": "[2]; ATCC25922, E. coli clinical isolate EC-40, Multidrug-resistant, origin Blood culture", "result": 2, "unit": "µg/mL"}, {"measurement": "MIC90", "setting": "[2]; ATCC25922, E. coli clinical isolate EC-43, Multidrug-resistant, origin Rectum", "result": 4, "unit": "µg/mL"}, {"measurement": "MIC90", "setting": "[2]; ATCC25922, E. coli clinical isolate EC-46, suceptible, origin Blood culture", "result": 2, "unit": "µg/mL"}, {"measurement": "MIC90", "setting": "[3]; ATCC43816, K. pneumoniae ATCC43816 strain, broth micro-dilution (CLSI), read-out: MIC 90", "result": 0.25, "unit": "µg/mL"}, {"measurement": "MIC90", "setting": "[3]; ATCC43816, K. pneumoniae clinical isolate KP-107, KPC/Pandrug-resistant, origin Urine, read-out: MIC 90", "result": 8, "unit": "µg/mL"}, {"measurement": "MIC90", "setting": "[3]; ATCC43816, K. pneumoniae clinical isolate KP-108, KPC/Pandrug-resistant, origin Urine, read-out: MIC 90", "result": 8, "unit": "µg/mL"}, {"measurement": "MIC90", "setting": "[3]; ATCC43816, K. pneumoniae clinical isolate KP-109, KPC/Pandrug-resistant, origin Catheter tip, read-out: MIC 90", "result": 16, "unit": "µg/mL"}, {"measurement": "MIC90", "setting": "[3]; ATCC43816, K. pneumoniae clinical isolate KP-110, KPC/Pandrug-resistant, origin Sputum, read-out: MIC 90", "result": 8, "unit": "µg/mL"}, {"measurement": "MIC90", "setting": "[3]; ATCC43816, K. pneumoniae clinical isolate KP-111, KPC/Pandrug-resistant, origin Urine, read-out: MIC 90", "result": 8, "unit": "µg/mL"}, {"measurement": "MIC90", "setting": "[3]; ATCC43816, K. pneumoniae clinical isolate KP-113, KPC/Pandrug-resistant, origin unkown", "result": 4, "unit": "µg/mL"}, {"measurement": "MIC90", "setting": "[4]; ATCC27853, P. aeruginosa ATCC27853 strain, broth micro-dilution (CLSI), read-out: MIC 90", "result": 0.25, "unit": "µg/mL"}, {"measurement": "MIC90", "setting": "[4]; ATCC27853, P. aeruginosa clinical isolate PA-179, Multidrug-resistant, origin Wound, read-out: MIC 90", "result": "2 to 4", "unit": "µg/mL"}, {"measurement": "MIC90", "setting": "[4]; ATCC27853, P. aeruginosa clinical isolate PA-195, Multidrug-resistant, origin Catheter, read-out: MIC 90", "result": "0.5 to 1", "unit": "µg/mL"}, {"measurement": "MIC90", "setting": "[4]; ATCC27853, P. aeruginosa clinical isolate PA-198, Multidrug-resistant, origin unkown", "result": "1 to 2", "unit": "µg/mL"}, {"measurement": "MIC90", "setting": "[4]; ATCC27853, P. aeruginosa clinical isolate PA-202, Multidrug-resistant, origin Faeces, read-out: MIC 90", "result": "0.25 to 0.5", "unit": "µg/mL"}, {"measurement": "MIC90", "setting": "[4]; ATCC 27853 / BAL, P. aeruginosa clinical isolate P4-171, Pandrug-resistant, origin BAL, read-out: MIC 90", "result": 8, "unit": "µg/mL"}]}
